Reference: patent US20140154182A1 (priority 2011, published 2014)

Experiments:
physchem = format: physicochemical; conditions: 1-octanol / 0.2M phosphate buffer pH 7.4, room temperature, triplicate; read-out: LogDoct,7.4
Description: The distribution of the radio labeled compounds between 1-octanol and 0.2M phosphate buffer (pH=7.4) was measured in triplicate at room temperature. Briefly, 1 mL of a 20 MBq/mL solution of the radio labeled compound in 0.2M phosphate buffer (pH=7.4) was vigorously mixed with 1 mL of 1-octanol for 1 min at room temperature using a vortex. After a settling period of 30 min, five samples of 100 μL were taken from both layers. For determining recovery, 5 samples of 100 μL were taken from the 20 MBq/mL solution. All samples were counted for radioactivity. The LogDoct,7.4 value was calculated according to LogDoct,7.4=^10Log(Aoct/Abuffer), where Aoct and Abuffer represent the average radioactivity counted of the 5 1-octanol and 5 buffer samples, respectively.

[1] = format: in vivo, B6C3 mice; conditions: for organ with the highest uptake: 5 min following tracer injection, blood, heart, lungs, liver, kidney; for DAR (differential absorption ratio), cerebellum / DAR (differential absorption ratio), cerebral cortex / DAR (differential absorption ratio), hippocampus / DAR (differential absorption ratio), prefrontal cortex / DAR (differential absorption ratio), striatum: 5 min post-injection, i.v.; for DAR (differential absorption ratio), cerebellum / DAR (differential absorption ratio), cerebral cortex / DAR (differential absorption ratio), hippocampus / DAR (differential absorption ratio), prefrontal cortex / DAR (differential absorption ratio), striatum / time of highest ratio of radioactivity uptake between forebrain regions and the cerebellum: mice; for clearance of radioactivity from the brain: mouse, in vivo; for time of highest ratio of radioactivity uptake between forebrain regions and the cerebellum: post-injection
Description: Male, 7-9 weeks old, B6C3 mice were used in all experiments. Animals were anaesthetized with an i.p. injection of Hypnorm/dormicum (12 ml/kg), after which [^18F]PK209 (as prepared in Example 26) (19.0±1.1 MBq at t0) or [^11C]PK083 (as prepared in Example 22) (24.4±3.5 MBq at t0) was administered via the tail vein, in a saline solution containing 10% ethanol (5 ml/kg). Following the injections, mice were killed by cervical dislocation at 5, 10, 30, or 60 min (n=4−6). At each time point, blood was obtained by heart punctures and selected organs, including the heart, liver, kidneys, lungs and brain were removed. The brain was further dissected into prefrontal cortex, striatum, cerebral cortex, hippocampus and cerebellum. All organs and brain areas were weighed, and recovered radioactivity was determined with a Compugamma (LKB Wallac), using 5×10 μl aliquots of the injected formulation as standard. Results are expressed as the differential absorption ratio (DAR): (cpm recovered/g tissue)/(cpm injected/g body weight). Two-way repeated measures ANOVA, followed by LSD post-hoc analysis was used for between-region (or organ) comparisons of radiotracer uptake at different time points.

NMDA receptors = assay: Ex vivo autoradiography and MK-801 blocking study; format: in vivo, mice
Description: To visualize the distribution and specificity of [^18F]PK209 or [^11C]PK083 for NMDA receptors, anaesthetized mice were injected with either saline or MK-801 (0.6 mg/kg, i.p.), 10 min before a tail-vein injection of each of the radiolabeled compounds (n=2). 5 min following injection of [^11C]PK083 or 15 min after [^18F]PK209 injection, mice were killed by cervical dislocation, and their brains were removed, frozen in liquid nitrogen and processed for quantitative autoradiography. Briefly, 20 μm coronal brain sections were cut at 300 μm intervals, from rostral to caudal areas. Sections from each mouse were opposed to Kodak Biomax MR-1 film, either immediately or following 2×30 sec washes in ice-cold Tris-HCl buffer (pH 7.4) and a dip in ice-cold demi water. Films were developed after 24 hr, and relevant optical density (ROD) values were obtained using the MCID software. Sections from control and MK-801 treated mice were processed in parallel. All brain regions were identified by reference to the mouse atlas of Franklin and Paxinos (2001).
Reference is made to FIG. 3. […] FIG. 3A the [^18F]209 specific binding (relevant optical density) is shown for (from left to right) frontal cortex, striatum, hippocampus, cerebral cortex and cerebellum. In FIG. 3B representative images are shown for (from bottom to top) cerebellum, hippocampus, striatum, cerebral cortex and frontal cortex.
Specific binding was defined as that […] pretreatment with MK-801 (0.6 mg/kg i.p.). […] Specific [^18F]PK-209 binding constituted 10% and 8% of total binding values in the hippocampus and the cerebral cortex, respectively.

NMDAR ion channel = assay: Competition binding assay against [3H]MK-801 in rat forebrain membranes; conditions: against 5 nM [3H]MK-801; mean±SEM of 2-6 independent determinations, each in triplicate
Description: Male Wistar rats (150-200 g) were killed by decapitation. The forebrains were rapidly removed and homogenized using a DUALL tissue homogenizer (10 strokes, 2000 rpm), in a 7-fold excess (v/w) of ice-cold 0.25 M sucrose. The nuclei and cell debris were removed by centrifugation (10 min x 400×g) in a Sorvall RC-6 refrigerated centrifuge (rotor SA600). The supernatant was decanted and the resulting pellet was rehomogenized in 5 vol 0.25 M sucrose and recentrifuged. The combined supernatants were diluted in Tris-acetate buffer (50 mM, pH 7.4) to a final dilution of 40 v/w, and centrifuged for 30 min×30,000×g, in order to obtain membranes from the cell surface, mitochondrial, and microsomal fractions. The pellet was resuspended in 20 vol of 50 mM Tris buffer containing 0.04% Triton X-100 (pH 7.4), and was kept at 25° C. for 2 hr before recentrifugation. The resulting pellet was suspended in Tris-HCl buffer (dilution 4, pH 7.4) and stored at −80° C. in 5 ml aliquots. On the day of each experiment, membranes were thawed to room temperature and washed twice by centrifugation (30 min×200,000×g). After the final centrifugation step, pellets were suspended in 50 mM Tris-HCl buffer (pH 7.4) and further diluted to 40 vol of buffer per g original weight wet tissue for competition binding experiments.
Protein concentration was determined using the BCA protein kit (Sigma-Aldrich, The Netherlands).
In vitro competition binding experiments were performed using 5 nM [^3H]MK-801 (specific activity 22.5 Ci/mmol; PerkinElmer, USA). All compounds as prepared in the Examples and listed in Table 2 were dissolved as 10 mM stock solutions in DMSO, and used in a concentration range from 10^−4 to 10^−12 M, with a maximal DMSO concentration of 1%. Competition binding experiments were conducted at room temperature, in a final volume of 500 μl assay buffer (50 mM Tris-HCl, pH 7.4), containing 1 μM L-glutamate and glycine. The incubation mixture was composed of 400 μl membrane suspension (protein concentration 1 μg/μL), 50 μL [^3H]MK-801, 45 μl assay buffer and 5 μl unlabeled drug solution. Nonspecific binding was determined in the presence of 30 μM GMOM. Incubations were terminated overnight by filtration, using a 48-well Brandel harvester and Whatman GF/B filters, presoaked in 0.3% polyethyleneimine. The filters were washed three times with 3 ml of ice-cold Tris-HCl buffer (pH 7.4), and radioactivity was subsequently determined by liquid scintillation spectrometry in 5 mL of Optiphase-HiSafe 3, at an efficiency of 40%.
Ki values were determined by nonlinear regression analysis using the equation: log EC50=log [10̂log Ki*(1+RadioligandNM/HotKdNM)], (GraphPad Software Inc., San Diego, Calif.).
In this table the Ki for the different compounds is stated. The Ki as measured against 5 nM [^3H]MK-801 and represent the mean±SEM Ki values of 2-6 independent determinations, each conducted in triplicate, The indexes (b), (c) and (d) describe the form in which the compound was tested: (b) fumaric acid salt, (c) free base, (d) hydrochloric acid salt.

[2] = quantitative autoradiography, relevant optical density

Compound: CSc1ccc(Cl)c(NC(=N)N([11CH3])c2cccc(OC(F)F)c2)c1 [[^11C]PK083, 1-(2-chloro-5-(methylthio)phenyl)-3-^11C-methyl-3-(3-(difluoromethoxy)phenyl)guanidine]
- logD (physchem): 1.76 ± 0.01
- organ with the highest uptake [1]: lungs
- DAR (differential absorption ratio), cerebellum [1]: 0.55±0.07
- DAR (differential absorption ratio), cerebral cortex [1]: 0.83±0.11
- DAR (differential absorption ratio), hippocampus [1]: 1.41±0.46
- DAR (differential absorption ratio), prefrontal cortex [1]: 0.96±0.16
- DAR (differential absorption ratio), striatum [1]: 0.86±0.13
- clearance of radioactivity from the brain [1]: rapidly cleared
- time of highest ratio of radioactivity uptake between forebrain regions and the cerebellum [1]: 5 min

Compound: CSc1ccc(Cl)c(NC(=N)N(C)c2cccc(OC[18F])c2)c1 [[^18F]PK209]
- logD (physchem): 1.45 ± 0.02
- organ with the highest uptake [1]: lungs
- DAR (differential absorption ratio), cerebellum [1]: 0.84±0.09
- DAR (differential absorption ratio), cerebral cortex [1]: 1.17±0.07
- DAR (differential absorption ratio), hippocampus [1]: 1.05±0.09
- DAR (differential absorption ratio), prefrontal cortex [1]: 1.19±0.10
- DAR (differential absorption ratio), striatum [1]: 1.19±0.15
- clearance of radioactivity from the brain [1]: cleared rapidly
- time of highest ratio of radioactivity uptake between forebrain regions and the cerebellum [1]: 15 min
- specific binding as share of total binding, cerebral cortex (NMDA receptors; 15 min after injection, MK-801 0.6 mg/kg i.p. pretreatment): 8%
- binding level, cerebellum (NMDA receptors; [2]): moderate
- binding level, cerebral cortex (NMDA receptors; [2]): high
- binding level, frontal cortex (NMDA receptors; [2]): low
- binding level, hippocampus (NMDA receptors; [2]): high
- binding level, striatum (NMDA receptors; [2]): low

Compound: CSc1ccc(Cl)c(NC(=N)Nc2cccc(OC(F)F)c2)c1 [compound 7, 1-(2-chloro-5-(methylthio)phenyl)-3-(3-(difluoromethoxy)phenyl)guanidine]
- Ki (NMDAR ion channel): 147 ± 15 nM

Compound: CSc1ccc(Cl)c(NC(=N)Nc2cccc(OC(F)(F)F)c2)c1 [compound 8, 1-(2-chloro-5-(methylthio)phenyl)-3-(3-(trifluoromethoxy)phenyl)guanidine]
- Ki (NMDAR ion channel): 235 ± 55.5 nM

Compound: COc1cccc(N(C)C(=N)Nc2cc(SC)ccc2Cl)c1 [compound 14, reference compound]
- Ki (NMDAR ion channel): 21.7 ± 2.2 nM

Compound: CSc1ccc(Cl)c(NC(=N)N(C)c2cccc(O)c2)c1 [compound 17, 3-(2-chloro-5-(methylthio)phenyl)-1-(3-hydroxyphenyl)-1-methylguanidine]
- Ki (NMDAR ion channel): 551 ± 57.8 nM

Compound: CSc1ccc(Cl)c(NC(=N)N(C)c2cccc(OC(F)F)c2)c1 [compound 18, 3-(2-chloro-5-(methylthio)phenyl)-1-(3-(difluoromethoxy)phenyl)-1-methylguanidine]
- Ki (NMDAR ion channel): 10 ± 2 nM

Compound: CSc1ccc(Cl)c(NC(=N)N(C)c2cccc(OC(F)(F)F)c2)c1 [compound 19, 3-(2-chloro-5-(methylthio)phenyl)-1-methyl-1-(3-(trifluoromethoxy)phenyl)guanidine]
- Ki (NMDAR ion channel): 12 ± 2 nM

Compound: CSc1ccc(Cl)c(NC(=N)N(C)c2cccc(OC(F)(F)C(F)F)c2)c1 [compound 20, 3-(2-chloro-5-(methylthio)phenyl)-1-methyl-1-(3-(1,1,2,2-tetrafluoroethoxy)phenyl)guanidine]
- Ki (NMDAR ion channel): 56.7 ± 6.2 nM

Compound: CSc1ccc(Cl)c(NC(=N)N(C)c2cccc(OCCCF)c2)c1 [compound 23, 3-(2-chloro-5-(methylthio)phenyl)-1-(3-(3-fluoropropoxy)phenyl)-1-methylguanidine]
- Ki (NMDAR ion channel): 179 ± 39 nM
